ChEMBL document CHEMBL2073806, “Effect of PCB-126 on intracellular accumulation and transepithelial transport of vinblastine in LLC-PK1 and its transformant cells expressing human P-glycoprotein” (J Vet Med Sci, 2004)

Molecular target: ATP-dependent translocase ABCB1 (Homo sapiens, UniProt P08183)
Assay: TP_TRANSPORTER: transepithelial transport (basal to apical) in LLC-MDR1 cells
Assay type: functional, cell-based
Conditions: pig

Chain of ATP-dependent translocase ABCB1 (P08183 whole entry): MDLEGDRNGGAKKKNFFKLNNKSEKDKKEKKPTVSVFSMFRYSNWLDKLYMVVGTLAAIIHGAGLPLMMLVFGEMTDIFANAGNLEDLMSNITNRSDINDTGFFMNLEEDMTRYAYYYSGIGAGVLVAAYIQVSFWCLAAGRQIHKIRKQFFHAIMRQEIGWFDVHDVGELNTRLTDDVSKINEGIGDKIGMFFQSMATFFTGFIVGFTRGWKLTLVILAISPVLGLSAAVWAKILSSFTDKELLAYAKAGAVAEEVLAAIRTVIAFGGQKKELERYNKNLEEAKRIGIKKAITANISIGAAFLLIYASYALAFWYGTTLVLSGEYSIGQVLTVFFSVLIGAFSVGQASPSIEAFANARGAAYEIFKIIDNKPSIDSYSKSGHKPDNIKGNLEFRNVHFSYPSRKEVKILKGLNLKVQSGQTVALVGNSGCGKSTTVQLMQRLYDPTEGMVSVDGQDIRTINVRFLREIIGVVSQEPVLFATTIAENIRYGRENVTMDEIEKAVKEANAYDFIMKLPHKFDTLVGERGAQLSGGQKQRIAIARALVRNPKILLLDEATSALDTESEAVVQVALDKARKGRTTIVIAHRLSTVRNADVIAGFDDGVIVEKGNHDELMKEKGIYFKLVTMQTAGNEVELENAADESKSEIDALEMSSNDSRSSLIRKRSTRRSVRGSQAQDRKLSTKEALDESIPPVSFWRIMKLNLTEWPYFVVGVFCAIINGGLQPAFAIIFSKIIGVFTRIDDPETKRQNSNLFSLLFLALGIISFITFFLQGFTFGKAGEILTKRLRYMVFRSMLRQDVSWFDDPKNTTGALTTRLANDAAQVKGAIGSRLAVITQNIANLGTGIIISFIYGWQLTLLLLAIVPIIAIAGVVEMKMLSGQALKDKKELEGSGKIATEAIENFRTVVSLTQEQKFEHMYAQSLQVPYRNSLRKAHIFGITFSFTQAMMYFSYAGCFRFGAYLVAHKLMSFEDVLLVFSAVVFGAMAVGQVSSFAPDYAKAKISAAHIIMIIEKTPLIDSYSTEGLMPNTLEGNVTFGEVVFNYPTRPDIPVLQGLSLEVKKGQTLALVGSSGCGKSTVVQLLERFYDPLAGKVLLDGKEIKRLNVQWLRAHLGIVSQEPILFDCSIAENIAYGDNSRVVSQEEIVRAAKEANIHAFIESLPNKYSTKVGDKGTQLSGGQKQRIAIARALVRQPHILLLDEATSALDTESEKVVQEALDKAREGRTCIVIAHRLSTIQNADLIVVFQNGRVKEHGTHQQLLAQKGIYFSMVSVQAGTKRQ

Compound: Clc1ccc(-c2cc(Cl)c(Cl)c(Cl)c2)cc1Cl [POLYCHLORINATED BIPHENYL 126]
- Activity: substrate [+]
